Reference: PMC7023394, “Cell Penetrating Peptide as a High Safety Anti-Inflammation Ingredient for Cosmetic Applications” (Biomolecules, 2020)
Where no end group is shown, it is not given here.

How the values were obtained:
[1] = test system: cysteine- or lysine-containing peptide; assay: In chemico skin sensitization: Direct Peptide Reactivity Assay (DPRA, OECD 442C); conditions: for DPRA Prediction: cysteine 1:10/lysine 1:50 prediction model
Method: The direct peptide reactivity assay (DPRA) is an in chemico method which quantified the remaining concentration of cysteine- or lysine-containing peptide after 24 h incubation with the test chemical at 25 °C. Relative peptide concentration was measured by HPLC (Waters, Milford, MA, USA) with gradient elution and UV detection (220 nm). […] This model allowed to classify the test chemical to one of four reactivity classes used to support the discrimination between sensitisers and non-sensitisers.

[2] = test system: Raw264.7 macrophage cells; type: cell-based; conditions: 1 µM
Method: In this experiment, macrophage (Raw264.7) cells were seeded in 96-well plates (5 × 10^5 cells/mL) and allowed to attach overnight. After attachment, cells were incubated with various concentrations of CPPAIF for 1 h and followed by stimulation with 1 μg/mL of LPS (lipopolysaccharide). No LPS-added cells were considered as control groups. After incubation, the amount of TNF-α and IL-6 in the medium were analyzed by enzyme linked immunosorbent assay (# KHC3011 and #EH2IL6, Thermo Fisher, Waltham, MA, USA). Cell viability was measured by AlamarBlue cell viability assay (BUF012B, Bio-Rad, Hercules, CA, USA).
Figure 5 Anti-inflammation activity of CPPAIF. Raw264.7 macrophage cells were seeded in 96-well plates (5 × 10^5 cells/mL) and allowed to attach overnight. After attachment, the cells were incubated with various concentrations of CPPAIF for 1 h followed by stimulation with 1 μg/mL of LPS. The control group was not treated with LPS and its cytokine secretion was set as 100% (mock). The amounts of TNFα (A) and IL-6 (B) in the medium were analyzed by ELISA. Cell viability was measured by AlamarBlue cell viability assay. *** p < 0.001 versus the control group.

[3] = test system: SkinEthic RHE 3D reconstructed human epidermis tissue model; assay: In vitro skin irritation test (OECD 439); conditions: 1 mM
RBL-2H3 mast cells = assay: Mast cell degranulation assay (β-hexosaminidase release); type: cell-based, rat; conditions: under 10 μM (0, 0.1, 1, 2, 5, 10 μM); PC A23187 set as 100%
Method: Inhibitory effects on release of β-hexosaminidase in RBL-2H3 (rat-basophilic leukemia cell line) were evaluated by a cell degranulation assay. Briefly, 0.2 mL of 5 × 10^5 cells/mL RBL-2H3 cells were seed in 24-well plates (in Minimum Essential Medium (MEM) containing 10% Fetal Bovine Serum (FBS), streptomycin (100 µg/mL) and penicillin (100 units/mL)) and sensitized with anti-DNP IgE (0.45 µg/mL). These cells were washed with Siraganian buffer (5 mM KCl, 0.4 mM MgCl2, 119 mM NaCl, 25 mM piperazine-N,N 2-bis(2-ethane sulfonic acid (PIPES), and 40 mM NaOH, pH 7.2) with glucose, 1 mM CaCl2, and 0.1% bovine serum albumin (BSA). After washing, these cell were incubated in 160 µL of the PBS for 10 min at 37 °C and then 20 µL of test sample solution or calcimycin (final 1 mM) was added and further incubated for 10 min. The plate was cooling on ice for 10 min to stop reaction. 50 µL of supernatant was transferred to 96-well plate and added with 50 µL of substrate (1 mM p-nitrophenyl N-acetyl-β-D-glucosaminide) in 0.1 M citrate buffer (pH 4.5) at 37 °C for 2.5 h. The reaction was stopped by adding 200 µL of carbonate-bicarbonate buffer (0.1 M, pH 10.0). The value of A405 was measured with a microplate reader.
Figure 6 Sensitization test of CPPAIF. The sensitization of CPPAIF was evaluated by mast cell degranulation assay. […]

[4] = Stability of CPPAIF in W/O and O/W emulsions (HPLC); type: physicochemical; conditions: 0.1 mM CPPAIF
[5] = test system: 3D human epidermis tissue model (SkinEthic RHE); assay: Transepidermal measurement by reconstructed human epidermis tissue model; type: in vitro ADME; conditions: 100 μL containing 100 μM CPPAIF, of exposure (method and legend: 1 h), HPLC, mean ± SD of three
Method: 3D human epidermis tissue model (SkinEthic™ RHE, SkinEthics, Lyon, France) and two kinds of CPPAIF-containing emulsion systems (water-in-oil emulsion (W/O) and oil-in-water emulsion (O/W)) were prepared for the transepidermal measurements. […] After treatment liquid beneath the model was collected for HPLC quantification. Transepidermal rate was calculated by measuring the amount of CPPAIF in medium beneath the 3D model by HPLC ((concentration of the beneath liquid/concentration of the topical exposure) × 100).
Figure 8 Transepidermal degree of formulated CPPAIF in SkinEthic^TM RHE model. All 3D reconstructed human epidermis tissues were incubated with growth medium for 2 h, then 0.1 mL formulated CPPAIF (0.1 mM) emulsions were added to the top of the tissues and incubated for 1 h. After treatment the liquid beneath the 3D skin model was collected for HPLC quantification. Transepidermal degree was calculated by measuring the amount of CPPAIF in the liquid beneath the 3D skin model using HPLC. ** p < 0.01 versus the W/O formulation group.

HaCaT cells = assay: Internalization of TMR-CPPAIF in human keratinocytes (confocal microscopy); type: cell-based; conditions: 20 µM, 37 °C, 30 min, confocal laser-scanning microscopy
Method: Confocal Laser-scanning Microscopy (CLSM, Zeiss Cell Observer-Z1, Baden-Württemberg, Germany) was performed to assess distribution of TMR-labeled CPPAIF (tetramethylrhodamine-[…], synthesized by Kelowna International Scientific, Taipei, Taiwan) in human keratinocytes, HaCaT. First, apply a layer of type I collagen on a glass cover slip, dry and sterilize the cover slip with UV light. Then, culture the HaCaT cells ([…] per slip) on the coverslip for 16 h. The attached HaCaT cells were cultured with 20 μM of the TMR- CPPAIF for 30 min, observed with CLSM (63× oil-immersion objective lens), and photographed under same exposure conditions.
Figure 7 Internalization of TMR-CPPAIF. HaCaT cells (1 × 10^3) were seeded on collagen I coated cover slide and incubated at 37 °C for 16 h. The cells were then incubatd with 20 μM of TMR-CPPAIF at 37 °C for 30 min. After washing and fixing, the cells were mounted and monitored by confocal microscopy. Red: TMR; Blue: nuclear staining with DAPI. (Magnification: 63×).

[6] = test item 100 mM, 24 h, 25 °C, HPLC, UV 220 nm

## OCCOc1ccccc1 [Phenoxyethanol, phenoxyethanol]
[1]; [6]
  Cysteine Depletion: 1.38%
  Lysine Depletion: −0.25%
  Mean of Cysteine and Lysine % Depletion: 0.56%
[1]; test item 100 mM
  DPRA Prediction: Non-sensitiser

## NYRWRCKNQN [CPPAIF]
[2]
  cell viability: 85.2 ± 4.25%
[3]
  skin irritation classification of OECD 439: did not cause skin irritation (no category)
[1]; test item 0.1 mM
  DPRA Prediction: Non-sensitiser
RBL-2H3 mast cells
  mast cell degranulation release (β-hexosaminidase): did not induce any mast cell degranulation release
[4]
  stability of CPPAIF in emulsion compositions: did not influence stability
[5]; O/W formulation
  Transepidermal degree ((concentration in the beneath liquid/concentration in the topical exposure) × 100): 28.4 ± 1.7%
[5]; W/O formulation
  Transepidermal degree ((concentration in the beneath liquid/concentration in the topical exposure) × 100): 41.4 ± 3.6%

## tetramethylrhodamine-NYRWRCKNQN [TMR-CPPAIF, tetramethylrhodamine-labeled CPPAIF]
HaCaT cells
  internalization into cells (TMR signal): internalized into the cells
